Biological target: T1, HsPKS1 (Huperzia serrata, UniProt A3E7Z7)
T1 sequence (A3E7Z7 1-399): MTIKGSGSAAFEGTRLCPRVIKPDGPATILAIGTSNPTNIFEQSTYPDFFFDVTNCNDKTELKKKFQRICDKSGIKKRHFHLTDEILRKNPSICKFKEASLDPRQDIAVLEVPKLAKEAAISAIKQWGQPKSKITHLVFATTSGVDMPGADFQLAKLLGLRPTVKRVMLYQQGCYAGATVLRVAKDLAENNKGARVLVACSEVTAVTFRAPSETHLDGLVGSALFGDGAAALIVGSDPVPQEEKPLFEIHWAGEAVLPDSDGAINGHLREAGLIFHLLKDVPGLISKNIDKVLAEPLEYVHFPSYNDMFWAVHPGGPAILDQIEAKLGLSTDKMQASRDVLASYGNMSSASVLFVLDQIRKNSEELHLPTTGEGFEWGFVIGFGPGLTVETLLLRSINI
Assay: product formation by HPLC / LC-MS
Type: biochemical
Settings: with malonyl-CoA

For `CC(C)(COP(=O)(O)OP(=O)(O)OC[C@H]1O[C@@H](n2cnc3c(N)ncnc32)[C@H](O)[C@@H]1OP(=O)(O)O)[C@@H](O)C(=O)NCCC(=O)NCCSC(=O)Cc1ccccn1` [2-pyridylacetyl-CoA], the “product formation by HPLC / LC-MS (library screen)” value was “Only two type III PKSs (HsPKS1 and HsPKS3) from H. serrata”.
